According to patent US20150065440A1 (Progen Pharmaceuticals Limited, priority 2007, published 2015):

Tests used:
GMK AH1 cells = experiment: Cytotoxicity assay, GMK AH1; format: cell-based, African green monkey; details: cell viability reduced by 50%
Experimental: The assay was performed in GMK AH1 cells that had been seeded in 96 well cluster plates and reached approximately 80-90% confluence at day 2 of culture. The cells were washed with EMEM and incubated for 24 h at 37° C. with 100 μL of serial two-fold dilutions of the test compound in serum-free EMEM. The effect of the test compound on cell viability was measured by using the tetrazolium-based CellTiter96 assay according to the manufacturer's protocol (Promega, Madison, Wis., USA).

HSV-1 [1] = experiment: Anti-HSV screening assay (viral plaques), HSV-1; format: cell-based; details: 100 μg/mL, viral plaques relative to mock treated controls
Experimental: (§1) African green monkey kidney (GMK AH1) cells^46 were cultured in Eagle's minimum essential medium (EMEM) supplemented with 2% calf serum, 0.05% Primaton RL substance (Kraft Inc., Norwich, USA) and antibiotics. Human epidermoid carcinoma (HEp-2) cells were cultured in Dulbecco's modified EMEM (DMEM) supplemented with 10% fetal calf serum and antibiotics. […] The RSV strain A-2^50 was used. The RSV stock was prepared as described by Hallak et al.^51 and stored at −70° C. in the presence of 40% sucrose^52.
(§2) The viral infectivity (the plaque number-reduction) assay and the plaque size-reduction assay were carried out as described previously^17. […] Subsequently, the cells were washed with 2 mL of EMEM and overlaid with 1% methylcellulose solution in EMEM. The plaques were visualized by staining with crystal violet solution after 2 (HSV-2) or 3 (HSV-1) days of incubation at 37° C. […] When the compounds were screened for anti-HSV or anti-RSV activity, mixtures of 200 PFU of the virus and the test compound (100 μg/mL) in serum-free EMEM were incubated for 10 min at room temperature before addition to cells and during the entire period of viral infection of cells and the development of viral plaques. In the plaque size-reduction assay, the compounds were added to cells (in methylcellulose overlay medium) after 2 h period of virus infection of cells in the absence of the inhibitor. After 2-3 days of incubation at 37° C., the viral plaques were visualized by staining the cells with 1% solution of crystal violet. For each compound tested, the images of twenty neighboring plaques were captured using a Leica DC300 digital camera attached to a Leitz-Wetzlar Diavert microscope. The area of each plaque was determined using IM500 image software (Leica). Similar protocols were used for RSV, except that the assays were performed in HEp-2 cells and DMEM supplemented with 2% heat-inactivated fetal calf serum was used instead of EMEM.

HSV-2 = experiment: Anti-HSV screening assay (viral plaques), HSV-2; format: cell-based; details: 100 μg/mL, viral plaques relative to mock treated controls
Experimental: as §1, §2

HSV-1 [2] = experiment: Virus inactivation assay, HSV-1; format: cell-based; details: 15 min at 37° C.
Experimental: (§3) Approximately 10^5 plaque-forming units of HSV-1 KOS321 or HSV-2 333 stain and specific concentrations of the test compound in 200 μL of serum-free EMEM were mixed and incubated at 37° C. for 15 min. The mixtures were diluted to the non-inhibitory concentrations of the test compound, and then subjected to the infectious titer determination as described under the viral plaque number-reduction assay. In case of RSV, the assay was carried out in similar manner using DMEM supplemented with 2% heat-inactivated fetal calf serum instead of EMEM. To evaluate the effect of a low pH value or the presence of cervical secretions; the virus (HSV-2 333) and compounds were diluted in a low pH buffer (4.5) or cervical secretions were added to the compound dilutions before mixing with the virus (HSV-2 333). The cervical secretions were prepared from cervical swabs generated from 3 different individuals. The swabs were rinsed with distilled water and centrifuged at 5000×g for 10 min. The supernatant was kept at −20° C. In the case of RSV, the assay was carried out in a similar manner using DMEM supplemented with 2% heat-inactivated fetal calf serum instead of EMEM.

RSV [3] = experiment: Virus inactivation assay, RSV; format: cell-based; details: 15 min at 37° C.
Experimental: as §3

RSV [4] = experiment: Anti-RSV screening assay (viral plaques); format: cell-based; details: 100 μg/mL, viral plaques relative to mock treated controls
Experimental: as §1, §2

rat aortic tissue = experiment: Ex vivo angiogenic sprout assay (rat aortic angiogenesis assay); format: cell-based, Sprague Dawley rats
Experimental: Explants from rat aortas were prepared by a modification of protocols previously described^42-54. In this model, the rat aortic endothelium exposed to a three dimensional matrix of ECM-derived proteins (Matrigel™), switches to a microvascular phenotype, generating branching networks of microvessels.
Briefly, thoracic aortas were excised from 2- to 4-month old Sprague Dawley rats and trimmed of remaining fat and connective tissue. Great care was taken at every stage to reduce physical damage of the aorta. Tissue was transferred to complete EBM-2 media (Cambrex) containing 2% FCS and all Singlequots™ (Cambrex) reagents except for heparin. Meanwhile, Matrigel™ (BD Biosciences) was allowed to cool on ice and once in a liquid form, 180 μL was pipetted into 48-well tissue culture plates (Nunc). The plates were incubated at 37° C. for 30 min to allow Matrigel™ to solidify.
Aortas were prepared by cutting 1 mm ring sections and then being bisected. Aortic segments were then carefully placed on top on the Matrigel™ in the centre of each well and once orientated as required, 60 μL of extra Matrigel™ was placed on top and the plate was returned to the incubator for a further 20 min. Each well was then supplemented with 1.0 mL media in the absence (control) or presence of test compounds usually at two concentrations within the range of 1-50 μM, depending on the particular compound/experiment. Cultures were replenished as appropriate every 48 h and scoring of microvessels was carried out at various timepoints up to 8-10 days. The extent of microvessel sprouting was determined by employing a scoring system from 0-5, where 0=no microvessels to 5=diffuse angiogenesis as previously described^45. Sprouting vessels were photographed using the 4× objective with an Olympus C-7070 camera and an adaptor for the eyepiece.
In some instances, to determine the potential toxicity of compounds in this assay, the viability of the tissue was assessed by withdrawing the compound/media from the culture on day 6 or 7 and adding complete media with VEGF (typically 10 ng/mL) for up to an additional 7 days. In the absence of toxicity, the viable tissue should sprout microvessels in response to the exogenous growth factor.
The inhibitory effect of compounds of the present invention on angiogenesis was assayed using the angiogenic sprout/microvessel formation (rat aortic) assay described above. Embedding of the rat aortic tissue in Matrigel™ in the absence of any inhibitor (control) yielded extensive angiogenic sprouting (as a score of 5 indicates diffuse angiogenesis) as illustrated by FIG. 1.

SMILES	Cytotoxicity CC50 GMK AH1 (GMK AH1 cells) [µg/mL]	Residual infectivity (%) HSV-1 (HSV-1 [1]) [%]	Residual infectivity (%) HSV-2 (HSV-2) [%]	Virus-inactivating activity: viral plaques with compound-treated virus relative to mock-treated controls (HSV-1 [2]; HSV-1, 1 μg/ml) [%]	Virus-inactivating activity: viral plaques with compound-treated virus relative to mock-treated controls (HSV-1 [2]; HSV-1, 10 μg/ml) [%]	Virus-inactivating activity: viral plaques with compound-treated virus relative to mock-treated controls (HSV-1 [2]; HSV-1, 100 μg/ml) [%]	Virus-inactivating activity: viral plaques with compound-treated virus relative to mock-treated controls (RSV [3]; 4 μg/ml) [%]	Virus-inactivating activity: viral plaques with compound-treated virus relative to mock-treated controls (RSV [3]; 20 μg/ml) [%]	Virus-inactivating activity: viral plaques with compound-treated virus relative to mock-treated controls (RSV [3]; 100 μg/ml) [%]	Residual infectivity (%) RSV (RSV [4]) [%]	% Inhibition of Angiogenesis (10 μM) (rat aortic tissue; 10 μM) [%]	inhibition at 10 µM (rat aortic tissue; Rattus norvegicus) [%]
CCCCCCCCCCCCOC1OC(COS(=O)(=O)O)C(OS(=O)(=O)O)C(OS(=O)(=O)O)C1OC1OC(COS(=O)(=O)O)C(OS(=O)(=O)O)C(OC2OC(COS(=O)(=O)O)C(OS(=O)(=O)O)C(OC3OC(COS(=O)(=O)O)C(OS(=O)(=O)O)C(OC4OC(COS(=O)(=O)O)C(OS(=O)(=O)O)C(OS(=O)(=O)O)C4OS(=O)(=O)O)C3OS(=O)(=O)O)C2OS(=O)(=O)O)C1OS(=O)(=O)O [Compound 4, Dodecyl 2,3,4,6-tetra-O-sodium sulfonato-α-D-mannopyranosyl-(1→3)-2,4,6-tri-O-sodium sulfonato-α-D-mannopyranosyl-(1→3)-2,4,6-tri-O-sodium sulfonato-α-D-mannopyranosyl-(1→3)-2,4,6-tri-O-sodium sulfonato-α-D-mannopyranosyl-(1→2)-3,4,6-tri-O-sodium sulfonato-α-D-mannopyranoside]	>400	2	0.7	83.9	79.4	83.8	85.2	82.2	47.3	0		
CC(C)CCCC(C)C1CCC2C3CCC4CC(OC5OC(COS(=O)(=O)O)C(OS(=O)(=O)O)C(OS(=O)(=O)O)C5OC5OC(COS(=O)(=O)O)C(OS(=O)(=O)O)C(OC6OC(COS(=O)(=O)O)C(OS(=O)(=O)O)C(OC7OC(COS(=O)(=O)O)C(OS(=O)(=O)O)C(OS(=O)(=O)O)C7OS(=O)(=O)O)C6OS(=O)(=O)O)C5OS(=O)(=O)O)CCC4(C)C3CCC12C [Compound 20, 3β-Cholestanyl 2,3,4,6-tetra-O-sodium sulfonato-α-D-mannopyranosyl-(1→3)-2,4,6-tri-O-sodium sulfonato-α-D-mannopyranosyl-(1→3)-2,4,6-tri-O-sodium sulfonato-α-D-mannopyranosyl-(1→2)-3,4,6-tri-O-sodium sulfonato-α-D-mannopyranoside]	110	0	0	88.6	0	0	102.2	79.0	13.3	0		
CC(C)CCC[C@@H](C)[C@H]1CC[C@H]2[C@@H]3CCC4CC(OCc5cn([C@@H]6O[C@H](COS(=O)(=O)[O-])[C@@H](O[C@H]7O[C@H](COS(=O)(=O)[O-])[C@@H](O[C@H]8O[C@H](COS(=O)(=O)[O-])[C@@H](OS(=O)(=O)[O-])[C@H](OS(=O)(=O)[O-])[C@H]8OS(=O)(=O)[O-])[C@H](OS(=O)(=O)[O-])[C@H]7OS(=O)(=O)[O-])[C@H](OS(=O)(=O)[O-])[C@H]6OS(=O)(=O)[O-])nn5)CC[C@]4(C)[C@H]3CC[C@]12C.[Na+].[Na+].[Na+].[Na+].[Na+].[Na+].[Na+].[Na+].[Na+].[Na+] (stereo partly drawn) [Compound 70, 4-(Cholestan-3-yl-oxymethyl)[1,2,3]triazol-1-yl 2,3,4,6-tetra-O-sodium sulfonato-α-D-glucopyranosyl-(1→4)-2,3,6-tri-O-sodium sulfonato-α-D-glucopyranosyl-(1→4)-1-deoxy-2,3,6-tri-O-sodium sulfonato-β-D-glucopyranoside]											97	
CCCCCCCCCCCCCCCCCC(=O)NCCCO[C@@H]1O[C@H](COS(=O)(=O)[O-])[C@@H](O[C@H]2O[C@H](COS(=O)(=O)[O-])[C@@H](O[C@H]3O[C@H](COS(=O)(=O)[O-])[C@@H](O[C@H]4O[C@H](COS(=O)(=O)[O-])[C@@H](OS(=O)(=O)[O-])[C@H](OS(=O)(=O)[O-])[C@H]4OS(=O)(=O)[O-])[C@H](OS(=O)(=O)[O-])[C@H]3OS(=O)(=O)[O-])[C@H](OS(=O)(=O)[O-])[C@H]2OS(=O)(=O)[O-])[C@H](OS(=O)(=O)[O-])[C@H]1OS(=O)(=O)[O-].[Na+].[Na+].[Na+].[Na+].[Na+].[Na+].[Na+].[Na+].[Na+].[Na+].[Na+].[Na+].[Na+] [Compound 128, 3-Stearamidopropyl 2,3,4,6-tetra-O-sulfo-α-D-glucopyranosyl-(1→4)-2,3,6-tri-O-sulfo-α-D-glucopyranosyl-(1→4)-2,3,6-tri-O-sulfo-α-D-glucopyranosyl-(1→4)-2,3,6-tri-O-sulfo-β-D-glucopyranoside, tridecasodium salt]												65
